Several values for one entry are separate records, joined by “and”; a condition that tells them apart may be missing. Equal values may be shown once.
Tests used:
Assay type in all cases: in vivo, human
[1] = Open-label weekly dose escalation study: pharmacokinetic data; details: 1200 mg group compared to the 800 mg group
Method: (§1) An open-label, weekly dose escalation study with up to 3 dose escalations was conducted. Five adult patients with type 1 diabetes (T1DM) who were using a continuous glucose monitoring (CGM) device and insulin delivered by continuous subcutaneous insulin infusion (CSII) were dosed with a once daily with a dose of 400, 800 or 1200 mg of {2-[3-cyclohexyl-3-(trans-4-propoxy-cyclohexyl)-ureido]-thiazol-5-ylsulfanyl}-acetic acid (UT-1) for seven days at each dose level.
(§2) The initial 7 days (days −7 to −1) of the study were used to obtain baseline laboratory samples and to record baseline insulin doses and blood glucose levels during a patient's usual insulin, dietary, and activity regimen. The once daily treatment dose of UT-1 was administered morning meal. Safety labs were collected on days −7, 1, 8, 15, 21 and 28. Insulin pump data and CGM data for each dosing period was collected on days 1, 8, 15, 21, and 28. Insulin was adjusted by a patient as required to maintain glycemic control. Data from day 3 to day 6 of each dosing period or baseline period was used in the analysis of the data.

[2] = test system: adult patients with type 1 diabetes (T1DM); experiment: Open-label weekly dose escalation study: insulin pump data (bolus and basal insulin dose); details: for mean value of bolus insulin dose per day: over subjects (FIG. 5), baseline 27.1 mean U/day; for Mean units of basal insulin units administered per day / Mean units of bolus insulin units administered per day: mean of days 3-6, one per subject 1-5
Method: as §1, §2

[3] = test system: adult patients with type 1 diabetes (T1DM); experiment: Open-label weekly dose escalation study: safety labs; details: 400, 800, 1200 mg once daily, 7 days each
Method: as §1, §2

[4] = test system: adult patients with T1DM; experiment: Multi-center double-blind placebo-controlled 12-week study, adjunct to insulin: HbA1c, responder analysis, ketones, insulin usage
Method: (§3) A multi-center double-blind placebo-controlled study with a 2-week single-blind placebo run-in period to evaluate UT-1 as a potential adjunctive treatment to insulin therapy for T1DM was conducted. The study examined the response in 20 adult patients with T1DM who were using a continuous glucose monitoring (CGM) device and insulin delivered by continuous subcutaneous insulin infusion (CSII) dosed once daily with either placebo or 800 mg UT-1 for up to 12 weeks. The once daily treatment was administered with the morning meal. Safety and assessments labs were collected prior to the placebo-run in period, at Day 1 prior to dosing with blinded study medication, at weeks 2, 4, 6, 8, 12 and at approximately week 13. Insulin pump data and CGM data was collected from the single-blind placebo run-in period to the end of dosing. A quality of life and treatment satisfaction questionnaires were also used. Insulin was adjusted by patients as required to maintain glycemic control.
Patients in this study received insulin adjustments to optimize glucose levels. […] Of all study patients, there was a greater proportion of responders in the group treated with UT-1 (75%) than in the placebo group (9%) (p=0.006).

[5] = test system: adult patients with type 1 diabetes (T1DM); experiment: Open-label weekly dose escalation study: CGM blood glucose time in range; details: for median value of the percentage of time blood glucose levels were in the range of 70-180 mg/dL: median over subjects (FIG. 1), baseline 52.0%; for median value of the percentage of time blood glucose levels were greater than 180 mg/dL (hyperglycemia): median over subjects (FIG. 4), baseline 37%; for Percentage of time (using CGM) blood glucose level is in range of 70-180 mg/dL / Percentage of time (using CGM) blood glucose level is above 180 mg/dL / Percentage of time (using CGM) blood glucose level is below 54 mg/dL / Percentage of time (using CGM) blood glucose level is between 54 and 70 mg/dL: median of days 3-6, one per subject 1-5
Method: as §1, §2

[6] = test system: adult patients with T1DM; experiment: Multi-center double-blind placebo-controlled 12-week study: safety and tolerability; details: 800 mg once daily up to 12 weeks
Method: as §3

## CCCO[C@H]1CC[C@H](N(C(=O)Nc2ncc(SCC(=O)O)s2)C2CCCCC2)CC1 [UT-1, {2-[3-cyclohexyl-3-(trans-4-propoxy-cyclohexyl)-ureido]-thiazol-5-ylsulfanyl}-acetic acid]
[1]
  concentrations of UT-1 (pharmacokinetic data): lower in 3 out of 5 subjects
[2]; 400 mg dose
  mean value of bolus insulin dose per day: 25 mean U/day
[2]; 800 mg dose
  mean value of bolus insulin dose per day: 20 mean U/day
[2]; UT-1 400 mg once daily
  Mean units of basal insulin units administered per day: 23.9 mean U/day and 15.5 mean U/day and 29.3 mean U/day and 22.6 mean U/day
  Mean units of bolus insulin units administered per day: 22.6 mean U/day and 29.9 mean U/day and 25.5 mean U/day and 23.3 mean U/day
[2]; UT-1 800 mg once daily
  Mean units of basal insulin units administered per day: 22.6 mean U/day and 15.3 mean U/day and 19.6 mean U/day and 29.8 mean U/day and 22.2 mean U/day
  Mean units of bolus insulin units administered per day: 17.6 mean U/day and 23.4 mean U/day and 22.5 mean U/day and 22 mean U/day and 15.8 mean U/day
[2]; UT-1 1200 mg once daily
  Mean units of basal insulin units administered per day: 22.9 mean U/day and 13.9 mean U/day and 21.8 mean U/day and 30.5 mean U/day and 19.1 mean U/day
  Mean units of bolus insulin units administered per day: 16.2 mean U/day and 23.8 mean U/day and 20.9 mean U/day and 28 mean U/day and 25.2 mean U/day
[2]; from baseline to 400 mg dose, and from 400 mg dose to 800 mg dose
  ratio of mean carbohydrate intake per day to mean bolus insulin dose per day: increase
[3]
  effect on liver function or plasma lipids: No detrimental effect
[4]; 800 mg once daily, 12 weeks, p=0.03
  mean difference in HbA1c in the UT-1 group relative to the placebo group: 0.7%
[4]; 800 mg once daily, at 12 weeks, n=8
  ending HbA1c: 6.7-6.8%
[4]; 800 mg once daily, at 12 weeks, n=8, baseline mean HbA1c 7.3%, statistically significant
  mean reduction in HbA1c: 0.6%
[4]; 800 mg once daily, up to 12 weeks
  insulin usage (trend): trends toward decreased insulin usage
[4]; 800 mg once daily, placebo 63%
  patients with abnormal levels of metabolic ketones observed in plasma or urine: 13%
[4]; responder: decrease in HbA1c at Week 12, no abnormal lactate or metabolic ketones, no increased time in Level 2 hypoglycemia, placebo 9%, p=0.006
  proportion of treatment responders: 75%
[5]; 400 mg dose
  median value of the percentage of time blood glucose levels were in the range of 70-180 mg/dL: 67.9%
  median value of the percentage of time blood glucose levels were greater than 180 mg/dL (hyperglycemia): 30.92%
[5]; 800 mg dose
  median value of the percentage of time blood glucose levels were in the range of 70-180 mg/dL: 75.7%
  median value of the percentage of time blood glucose levels were greater than 180 mg/dL (hyperglycemia): 20.46%
[5]; UT-1 400 mg once daily for 7 days with CSII insulin
  Percentage of time (using CGM) blood glucose level is in range of 70-180 mg/dL: 69.3% and 56.3% and 69.6% and 67.9% and 56.8%
[5]; UT-1 400 mg once daily
  Percentage of time (using CGM) blood glucose level is above 180 mg/dL: 20.91% and 42.54% and 22.49% and 30.92% and 36.99%
  Percentage of time (using CGM) blood glucose level is below 54 mg/dL: 0% (3×) and 2.42% and 1.88%
  Percentage of time (using CGM) blood glucose level is between 54 and 70 mg/dL: 4.2% and 0.86% and 5.54% and 0.54% and 4.97%
[5]; UT-1 800 mg once daily for 7 days with CSII insulin
  Percentage of time (using CGM) blood glucose level is in range of 70-180 mg/dL: 44.3% and 65.4% and 85.9% and 82.7% and 75.7%
[5]; UT-1 800 mg once daily
  Percentage of time (using CGM) blood glucose level is above 180 mg/dL: 50.66% and 34.56% and 14.07% and 16.82% and 20.46%
  Percentage of time (using CGM) blood glucose level is below 54 mg/dL: 1.38% and 0% (4×)
  Percentage of time (using CGM) blood glucose level is between 54 and 70 mg/dL: 3.27% and 0% (2×) and 0.17% and 0.69%
[5]; UT-1 1200 mg once daily for 7 days with CSII insulin
  Percentage of time (using CGM) blood glucose level is in range of 70-180 mg/dL: 52.9% and 48.8% and 80.9% and 69.6% and 59.3%
[5]; UT-1 1200 mg once daily
  Percentage of time (using CGM) blood glucose level is above 180 mg/dL: 42.24% and 50.68% and 18.79% and 24.62% and 30.09%
  Percentage of time (using CGM) blood glucose level is below 54 mg/dL: 0% (4×) and 3.84%
  Percentage of time (using CGM) blood glucose level is between 54 and 70 mg/dL: 0.17% (2×) and 0.86% and 1.28% and 5.84%
[5]; dose escalation 400, 800, 1200 mg once daily
  glycemic control and insulin dose (trend): trends toward improved glycemic control while reducing insulin dose
[6]; similar incidences of treatment-emergent adverse events overall and by system organ class
  tolerability: well tolerated
[6]; whole study
  diabetic ketoacidosis or severe hypoglycemia reports: no report of diabetic ketoacidosis or severe hypoglycemia
  serious adverse events: no serious adverse event

From US11974989B2, “Therapeutic uses of glucokinase activators in combination with insulin or insulin analogs” (vTv Therapeutics LLC, priority 2018, dated 2024)
